Inconclusive results are not listed.
System: M. tuberculosis H37Rv growth inhibition, 7H9 media
Test: M. tuberculosis growth inhibition, HTS (AID 449762);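 also: bacterial growth assessed after seven days of incubation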
Conditions: for IC90: measured here: IC90 growth inhibition

For `Nc1nonc1C(=O)NCCNCc1c(OCc2ccccc2F)ccc2ccccc12`, the IC50 was 39.8 µM and the IC90 was 50.5 µM.
Work on `COc1ccc(NC(=O)/C(Cl)=C(/Cl)S(=O)Cc2ccc(C)cc2)cn1` (stereo not drawn) yielded an IC50 of less than 0.2 µM and an IC90 of less than 0.2 µM.
With `Cc1ccc(NC(=O)CSc2nc3ccccc3c(=O)n2CCCN2CCCCC2)cc1Cl` the IC50 was 39 µM and the IC90 was 55.5 µM.
`CC(C)(C)c1nn(-c2ccccc2)c2[nH]c(=O)c(CNCc3ccc4c(c3)OCO4)cc12` was tested, and the IC50 was 20.4 µM and the IC90 was 27.3 µM.
Molecule `CN(C)CCOc1nc(-c2ccccc2)nc2c1oc1ccccc12` has an IC50 of 11.8 µM and an IC90 of 16.3 µM.
`CCCc1cc(-c2nc(-c3ccc(Br)cc3)cs2)ccn1` was tested, and the IC50 was 10.3 µM and the IC90 was 20.6 µM.
`CCCc1cc(C(N)=S)ccn1` showed an IC50 of 6.61 µM and an IC90 greater than 100 µM.
For `c1ccc(CN2CCC(Nc3nc(-c4ccccc4)nc4ccccc34)CC2)cc1`, the IC50 was 10.3 µM and the IC90 was 16.3 µM.
With `CC1CCCC(C)N1/N=C/c1c[nH]c2ccc(Br)cc12` (stereo not drawn) the IC50 was 23.3 µM and the IC90 was 26.3 µM.
For `C=CCSc1n[nH]c(-c2ccc(OCCCC)cc2)n1`, the IC50 was 15.8 µM and the IC90 was 39.2 µM.
For `Cc1ccn2nc(S(=O)(=O)Nc3c(F)cccc3F)nc2n1`, the IC50 was 6.95 µM and the IC90 was 9.3 µM.
Work on `COc1ccccc1C(=O)NNC(=O)C(=O)NCc1ccccc1` yielded an IC50 of 10.6 µM and an IC90 of 37.9 µM.
With `O=C(OCc1nc2ccccc2s1)c1ccc(Br)o1` the IC50 was 18.9 µM and the IC90 was greater than 100 µM.
`O=C1Nc2cc(C(=O)NCCCN3CCOCC3)ccc2S/C1=C/c1cccc(Cl)c1` was tested, and the IC50 was 26.3 µM and the IC90 was 41 µM.
With `NC1=NC[C@H](Cc2ccc(O)cc2)N1CCc1cccc2ccccc12` the IC50 was 21.6 µM and the IC90 was 24.1 µM.
Work on `Cc1ccc2nc(/N=C(\N)NC(=O)NC3CCCCC3)nc(C)c2c1` yielded an IC50 of 2.22 µM and an IC90 of 8.85 µM.
In the case of `O=[N+]([O-])c1ccc(C2CC(c3ccccc3)=Nc3ccccc3S2)cc1` (stereo not drawn), the IC50 is reported as 5.11 µM and the IC90 is reported as 6.66 µM.
Work on `CSc1nn(-c2ccc(C(=O)OCC(=O)NC(=O)NC(C)C)cc2)c(=S)s1` yielded an IC50 of 23.1 µM and an IC90 of 25.9 µM.
In the case of `COc1ccccc1-n1cc2c([N+](=O)[O-])cc([N+](=O)[O-])cc2n1`, the IC50 is reported as less than 0.2 µM and the IC90 is reported as 3.18 µM.
For `O=c1oc2ccccc2c(O)c1/C=C1\C=Nc2ccccc21`, the IC50 was 16.6 µM and the IC90 was 39.8 µM.
For `COC(=O)c1ccc(NC(=O)CSc2nc3ccc(N4C(=O)C5C6C=CC(C6)C5C4=O)cc3s2)cc1` (stereo not drawn), the IC50 was 3.89 µM and the IC90 was 5.73 µM.
Molecule `CC1CCN(C(=O)C2CCN(c3nnc(-n4cccc4)s3)CC2)CC1` has an IC50 of 2.96 µM and an IC90 of 3.37 µM.
For `O=C(Nc1cccc(-c2csc(Nc3ccc(Cl)cc3)n2)c1)c1cccc(C(F)(F)F)c1`, the IC50 was 27 µM and the IC90 was greater than 100 µM.
Work on `CC(C)(C)c1ccc(C(=O)CSc2n[nH]c(=O)[nH]c2=O)cc1` yielded an IC50 of 7.69 µM and an IC90 of 25.4 µM.
With `CCCCn1c(NCc2ccc3c(c2)OCO3)nc2ccccc21` the IC50 was 19 µM and the IC90 was 31.1 µM.
With `CCCCCCCCn1sccc1=O` the IC50 was 1.29 µM and the IC90 was 2.12 µM.
For `c1ccc(CCN2CCN(c3ncnc4c3cnn4-c3ccccc3)CC2)cc1`, the IC50 was 21.3 µM and the IC90 was 43 µM.
Work on `O=C(Oc1ccc(-c2cn3c(n2)SCC3)cc1)c1ccccc1` yielded an IC50 of 38.2 µM and an IC90 greater than 100 µM.
`Nc1c(C(=O)NC2CCCCC2)nsc1C(=O)OCC(=O)NC1CCCCC1` showed an IC50 of 1.87 µM and an IC90 of 6.02 µM.
`CCOC(=O)c1nn(-c2ccc(C)cc2)c2nc(Nc3ccccc3)cc(=O)n12` was tested, and the IC50 was 4.1 µM and the IC90 was 12.7 µM.
With `Cc1ccc2nc(=O)c(NNc3ccccc3)cnc2c1` the IC50 was 16.5 µM and the IC90 was greater than 100 µM.
`c1ccc(-c2nc3nonc3nc2-c2ccccc2)cc1` showed an IC50 of 33.5 µM and an IC90 of 43.9 µM.
Molecule `c1ccc2sc(Sc3ncnc4sccc34)nc2c1` has an IC50 of 3.36 µM and an IC90 of 6.95 µM.
`CCOC(=O)c1ccc(NC(=O)CSc2ccc(-c3cccnc3)nn2)cc1` was tested, and the IC90 was greater than 100 µM.
In the case of `COc1cc2c(cc1OC)C(c1cc(Br)ccc1F)N(C(=O)CCl)CC2` (stereo not drawn), the IC50 is reported as 2.77 µM and the IC90 is reported as 5.69 µM.
In the case of `COc1ccc(C(C[N+](=O)[O-])c2c(-c3ccccc3)cc3ccccn23)c(OC)c1` (stereo not drawn), the IC50 is reported as 14.9 µM and the IC90 is reported as 38.6 µM.
In the case of `Cc1ccc(S(=O)(=O)N2CCC(C(=O)OCc3ccccc3)CC2)cc1C`, the IC50 is reported as 22.1 µM and the IC90 is reported as 40.6 µM.
Work on `O=C(c1cc2cc(F)ccc2[nH]1)N(Cc1cccnc1)CC1CCCN(C2CCCCC2)C1` (stereo not drawn) yielded an IC50 of 25 µM and an IC90 of 33.6 µM.
`CCCCC(=O)OCC(=O)N1N=C(c2c[nH]c3ccccc23)C(O)C1c1ccc(OC)cc1` (stereo not drawn) showed an IC50 of 10.6 µM and an IC90 of 15.9 µM.
`COc1ccc(CNC[C@@H](CCCCN(C)Cc2ccc(OC)cc2)N2C[C@H](c3ccccc3)N(CCc3ccc(Cl)c(Cl)c3)C(=O)C2=O)cc1` gave an IC50 of 5.48 µM and an IC90 of 8.71 µM.
`COC(=O)C1=C(c2ccc(OCc3ccccc3)cc2)C[C@@H]2CC[C@H]1N2C(=O)NC1CCN(Cc2ccccc2)CC1` was tested, and the IC50 was 24.4 µM and the IC90 was 27.5 µM.
Work on `Cc1csc(NC(=O)CCCC(=O)O)c1-c1nc2ccccc2s1` yielded an IC50 of 35.8 µM and an IC90 of 79.6 µM.
With `O=C1CCC(=O)N1CNc1ccc(Oc2ccccc2)cc1` the IC90 was greater than 100 µM.
For `c1ccc(Cn2nnc3c(N4CCc5ccccc5C4)ncnc32)cc1`, the IC50 was 19.7 µM and the IC90 was 72.8 µM.
Work on `COc1ccc(C2=NC(=O)/C(=C\c3cc(OC)c(OC)c(OC)c3)O2)cc1` yielded an IC50 of 5.71 µM and an IC90 of 49.3 µM.
